The NIST ThermoML archive (doi:10.1021/je8004134)

Test: an = ratio of the nth substance listed, in mol/kg
Details: 298.15 K, 101 kPa, Liquid; for speed of sound: Sing-around technique in a fixed-path interferometer; for mass density: Vibrating tube method

C[S+](C)[O-] [dimethyl sulfoxide] + [Cl][Mn][Cl]
a2 = 0
Details	mass density [kg/m3]	speed of sound [m/s]
–	1095.19	1484.1

CC(=O)N(C)C [N,N-dimethylethanamide] + [Cl][Co][Cl]
a2 = 0
Details	mass density [kg/m3]	speed of sound [m/s]
–	936.417	1455.4

CC(=O)N(C)C [N,N-dimethylethanamide] + [Cu+2].[O-][Cl+3]([O-])([O-])[O-].[O-][Cl+3]([O-])([O-])[O-]
a2 = 0
Details	mass density [kg/m3]	speed of sound [m/s]
–	936.11	1455.4

[Ni+2].[O-][Cl+3]([O-])([O-])[O-].[O-][Cl+3]([O-])([O-])[O-] [nickel perchlorate] + CC(=O)N(C)C
Details	mass density [kg/m3]	speed of sound [m/s]
a1 = 0.03452	943.693	1460.5
a1 = 0.06515	950.677	1464.3
a1 = 0.096	957.709	1468.2
a1 = 0.1279	964.983	1472.3
a1 = 0.1604	972.395	1476.5
a1 = 0.1898	979.089	1480.4
a1 = 0.2198	985.93	1484.6
a1 = 0.2504	992.904	1489

[O-][Cl+3]([O-])([O-])[O-].[O-][Cl+3]([O-])([O-])[O-].[Zn+2] [zinc perchlorate] + C[S+](C)[O-]
Details	mass density [kg/m3]	speed of sound [m/s]
a1 = 0.02918	1101.58	1485.7
a1 = 0.03465	1102.78	1486
a1 = 0.05104	1106.39	1486.9
a1 = 0.06794	1110.13	1487.8
a1 = 0.08574	1114.1	1488.8
a1 = 0.1022	1117.8	1489.7
a1 = 0.119	1121.58	1490.7
a1 = 0.1435	1127.14	1492.2
a1 = 0.1685	1132.85	1493.7

[Ni+2].[O-][Cl+3]([O-])([O-])[O-].[O-][Cl+3]([O-])([O-])[O-] [nickel perchlorate] + C[S+](C)[O-]
Details	mass density [kg/m3]	speed of sound [m/s]
a1 = 0.01259	1097.89	1485
a1 = 0.02515	1100.6	1485.8
a1 = 0.03816	1103.4	1486.7
a1 = 0.051	1106.18	1487.5
a1 = 0.06341	1108.88	1488.4
a1 = 0.07675	1111.79	1489.2
a1 = 0.08797	1114.24	1490
a1 = 0.1004	1116.98	1491
a1 = 0.1125	1119.67	1491.7
a1 = 0.1251	1122.43	1492.6

[O-][Cl+3]([O-])([O-])[O-].[O-][Cl+3]([O-])([O-])[O-].[Zn+2] [zinc perchlorate] + CC(=O)N(C)C
Details	mass density [kg/m3]	speed of sound [m/s]
a1 = 0.04286	945.119	1460.8
a1 = 0.08313	954.115	1464.9
a1 = 0.1231	963.055	1469
a1 = 0.1625	971.852	1473.2
a1 = 0.2013	980.513	1477.5
a1 = 0.2396	989.07	1481.9
a1 = 0.2771	997.457	1486.3
a1 = 0.3148	1005.87	1490.8

C[S+](C)[O-] [dimethyl sulfoxide] + [Co+2].[O-][Cl+3]([O-])([O-])[O-].[O-][Cl+3]([O-])([O-])[O-]
a2 = 0
Details	mass density [kg/m3]	speed of sound [m/s]
–	1095.19	1484.1

C[S+](C)[O-] [dimethyl sulfoxide] + [Cl][Cu][Cl]
a2 = 0
Details	mass density [kg/m3]	speed of sound [m/s]
–	1095.2	1484.1

C[S+](C)[O-] [dimethyl sulfoxide] + [O-][Cl+3]([O-])([O-])[O-].[O-][Cl+3]([O-])([O-])[O-].[Zn+2]
a2 = 0
Details	mass density [kg/m3]	speed of sound [m/s]
–	1095.2	1484.1

CC(=O)N(C)C [N,N-dimethylethanamide] + [Cl][Ni][Cl]
a2 = 0
Details	mass density [kg/m3]	speed of sound [m/s]
–	936.23	1455.4

[Cl][Cu][Cl] [copper chloride] + CC(=O)N(C)C
Details	mass density [kg/m3]	speed of sound [m/s]
a1 = 0.04793	941.347	1456.2
a1 = 0.09502	946.26	1457.1
a1 = 0.139	950.849	1458
a1 = 0.1852	955.662	1458.9
a1 = 0.2306	960.406	1459.9
a1 = 0.2755	965.086	1460.9
a1 = 0.3194	969.661	1461.9
a1 = 0.364	974.319	1462.9

CC(=O)N(C)C [N,N-dimethylethanamide] + [Cl-].[Cl-].[Zn+2]
a2 = 0
Details	mass density [kg/m3]	speed of sound [m/s]
–	936.22	1455.4

[Cl][Mn][Cl] [manganese chloride] + CC(=O)N(C)C
Details	mass density [kg/m3]	speed of sound [m/s]
a1 = 0.05753	942.406	1458.5
a1 = 0.1146	948.611	1461.2
a1 = 0.1691	954.924	1463.8
a1 = 0.222	961.136	1466.5
a1 = 0.2756	967.302	1469.4
a1 = 0.3266	973.327	1472.2
a1 = 0.3813	979.1	1475.5
a1 = 0.433	984.866	1478.6

[Mn+2].[O-][Cl+3]([O-])([O-])[O-].[O-][Cl+3]([O-])([O-])[O-] [manganese (II) perchlorate] + C[S+](C)[O-]
Details	mass density [kg/m3]	speed of sound [m/s]
a1 = 0.0211	1099.48	1485.3
a1 = 0.02843	1100.98	1485.8
a1 = 0.037	1102.73	1486.2
a1 = 0.04758	1104.9	1486.8
a1 = 0.05763	1106.97	1487.5
a1 = 0.07358	1110.26	1488.3
a1 = 0.09456	1114.62	1489.7
a1 = 0.1139	1118.65	1490.8
a1 = 0.1337	1122.82	1492
a1 = 0.1566	1127.65	1493.4
a1 = 0.1754	1131.67	1494.6

[Cl][Co][Cl] [cobalt chloride] + CC(=O)N(C)C
Details	mass density [kg/m3]	speed of sound [m/s]
a1 = 0.02558	938.7	1456.5
a1 = 0.05173	941.28	1457.3
a1 = 0.07676	943.75	1458
a1 = 0.1024	946.279	1458.9
a1 = 0.1289	948.892	1459.8
a1 = 0.1539	951.355	1460.7
a1 = 0.181	954.035	1461.6
a1 = 0.2056	956.46	1462.6

[Cl][Ni][Cl] [nickel chloride (NiCl2)] + CC(=O)N(C)C
Details	mass density [kg/m3]	speed of sound [m/s]
a1 = 0.019	938.196	1457
a1 = 0.03382	939.871	1458
a1 = 0.05743	942.54	1459.5
a1 = 0.07634	944.678	1460.8
a1 = 0.09563	946.859	1462
a1 = 0.114	948.937	1463.3
a1 = 0.1327	951.046	1464.5
a1 = 0.1513	953.148	1465.8

[Cl][Ni][Cl] [nickel chloride (NiCl2)] + C[S+](C)[O-]
Details	mass density [kg/m3]	speed of sound [m/s]
a1 = 0.01103	1096.81	1485.1
a1 = 0.01653	1097.61	1485.5
a1 = 0.02222	1098.43	1486
a1 = 0.02764	1099.21	1486.3
a1 = 0.03328	1100.03	1486.7
a1 = 0.03812	1100.72	1487.1
a1 = 0.04374	1101.53	1487.4
a1 = 0.04953	1102.36	1487.8
a1 = 0.05501	1103.13	1488.2

CC(=O)N(C)C [N,N-dimethylethanamide] + [Co+2].[O-][Cl+3]([O-])([O-])[O-].[O-][Cl+3]([O-])([O-])[O-]
a2 = 0
Details	mass density [kg/m3]	speed of sound [m/s]
–	936.233	1455.4

CC(=O)N(C)C [N,N-dimethylethanamide] + [Mn+2].[O-][Cl+3]([O-])([O-])[O-].[O-][Cl+3]([O-])([O-])[O-]
a2 = 0
Details	mass density [kg/m3]	speed of sound [m/s]
–	936.213	1455.4

C[S+](C)[O-] [dimethyl sulfoxide] + [Cl][Co][Cl]
a2 = 0
Details	mass density [kg/m3]	speed of sound [m/s]
–	1095.19	1484.1

CC(=O)N(C)C [N,N-dimethylethanamide] + [Cl][Cu][Cl]
a2 = 0
Details	mass density [kg/m3]	speed of sound [m/s]
–	936.304	1455.4

[Cl-].[Cl-].[Zn+2] [zinc chloride] + C[S+](C)[O-]
Details	mass density [kg/m3]	speed of sound [m/s]
a1 = 0.05319	1100.61	1484.1
a1 = 0.0712	1102.49	1484.2
a1 = 0.0892	1104.34	1484.5
a1 = 0.107	1106.22	1484.8
a1 = 0.1251	1108.12	1485.2
a1 = 0.1517	1110.9	1485.9
a1 = 0.1776	1113.65	1486.6

C[S+](C)[O-] [dimethyl sulfoxide] + [Cl-].[Cl-].[Zn+2]
a2 = 0
Details	mass density [kg/m3]	speed of sound [m/s]
–	1095.2	1484.1

[Cl][Mn][Cl] [manganese chloride] + C[S+](C)[O-]
Details	mass density [kg/m3]	speed of sound [m/s]
a1 = 0.04414	1100.11	1486.7
a1 = 0.0572	1101.48	1487.5
a1 = 0.06981	1102.79	1488.2
a1 = 0.08942	1104.86	1489.2
a1 = 0.1135	1107.39	1490.3
a1 = 0.1386	1110.03	1491.4
a1 = 0.1616	1112.45	1492.1
a1 = 0.19	1115.49	1493.2
a1 = 0.213	1117.93	1494.1

CC(=O)N(C)C [N,N-dimethylethanamide] + [O-][Cl+3]([O-])([O-])[O-].[O-][Cl+3]([O-])([O-])[O-].[Zn+2]
a2 = 0
Details	mass density [kg/m3]	speed of sound [m/s]
–	936.15	1455.4

C[S+](C)[O-] [dimethyl sulfoxide] + [Ni+2].[O-][Cl+3]([O-])([O-])[O-].[O-][Cl+3]([O-])([O-])[O-]
a2 = 0
Details	mass density [kg/m3]	speed of sound [m/s]
–	1095.19	1484.1

[Co+2].[O-][Cl+3]([O-])([O-])[O-].[O-][Cl+3]([O-])([O-])[O-] [cobalt(II) perchlorate] + CC(=O)N(C)C
Details	mass density [kg/m3]	speed of sound [m/s]
a1 = 0.029	942.693	1459.3
a1 = 0.04235	945.675	1461
a1 = 0.05501	948.505	1462.7
a1 = 0.08591	955.413	1466.7
a1 = 0.1144	961.778	1470.4
a1 = 0.1415	967.838	1474
a1 = 0.1692	974.036	1477.8
a1 = 0.1973	980.3	1481.6
a1 = 0.2214	985.701	1484.9
